ChEMBL document CHEMBL1201862, “PubChem BioAssay data set” (2004)
Activity calls are given as the source filed them.

How the values were obtained:
cells = format: functional
Protein RecA = biological target: T1, Protein RecA (Mycobacterium tuberculosis, UniProt P9WHJ3); experiment: Fluorescence Cell-Free Homogeneous Dose Retest to Identify Inhibitors of RecA-Intein Splicing Activity. [Related pubchem assays (depositor defined):AID2097, AID2223, AID489010, AID492950]; format: functional
T1 sequence (P9WHJ3 whole entry): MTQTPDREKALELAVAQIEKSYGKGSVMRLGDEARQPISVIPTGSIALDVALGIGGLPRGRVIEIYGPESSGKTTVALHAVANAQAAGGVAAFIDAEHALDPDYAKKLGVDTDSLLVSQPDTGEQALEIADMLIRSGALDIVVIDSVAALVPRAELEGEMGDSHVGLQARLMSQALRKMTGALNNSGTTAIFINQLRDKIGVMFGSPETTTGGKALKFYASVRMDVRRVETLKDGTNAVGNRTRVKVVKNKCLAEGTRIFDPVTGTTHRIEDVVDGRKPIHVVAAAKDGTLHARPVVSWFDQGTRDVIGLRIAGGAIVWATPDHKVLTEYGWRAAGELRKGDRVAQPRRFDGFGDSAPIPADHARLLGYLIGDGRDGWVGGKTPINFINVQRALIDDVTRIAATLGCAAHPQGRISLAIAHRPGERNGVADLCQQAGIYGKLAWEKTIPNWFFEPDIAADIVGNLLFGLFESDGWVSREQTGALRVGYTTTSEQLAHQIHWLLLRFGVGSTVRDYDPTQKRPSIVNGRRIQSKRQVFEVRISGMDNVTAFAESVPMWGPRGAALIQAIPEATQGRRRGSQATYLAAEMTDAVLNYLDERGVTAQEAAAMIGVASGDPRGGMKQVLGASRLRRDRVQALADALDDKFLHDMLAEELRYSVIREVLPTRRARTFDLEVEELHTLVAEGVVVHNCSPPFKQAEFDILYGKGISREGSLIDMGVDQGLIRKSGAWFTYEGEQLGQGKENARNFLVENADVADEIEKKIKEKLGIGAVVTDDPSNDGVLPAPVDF

[1] = biological target: T2, Replicative DNA helicase DnaB (Mycobacterium tuberculosis, UniProt P9WMR3); experiment: DnaB intein splicing inhibitors, dose response, biochemical, cell-free fluorescence (AID 449749); format: functional
T2 sequence (P9WMR3 whole entry): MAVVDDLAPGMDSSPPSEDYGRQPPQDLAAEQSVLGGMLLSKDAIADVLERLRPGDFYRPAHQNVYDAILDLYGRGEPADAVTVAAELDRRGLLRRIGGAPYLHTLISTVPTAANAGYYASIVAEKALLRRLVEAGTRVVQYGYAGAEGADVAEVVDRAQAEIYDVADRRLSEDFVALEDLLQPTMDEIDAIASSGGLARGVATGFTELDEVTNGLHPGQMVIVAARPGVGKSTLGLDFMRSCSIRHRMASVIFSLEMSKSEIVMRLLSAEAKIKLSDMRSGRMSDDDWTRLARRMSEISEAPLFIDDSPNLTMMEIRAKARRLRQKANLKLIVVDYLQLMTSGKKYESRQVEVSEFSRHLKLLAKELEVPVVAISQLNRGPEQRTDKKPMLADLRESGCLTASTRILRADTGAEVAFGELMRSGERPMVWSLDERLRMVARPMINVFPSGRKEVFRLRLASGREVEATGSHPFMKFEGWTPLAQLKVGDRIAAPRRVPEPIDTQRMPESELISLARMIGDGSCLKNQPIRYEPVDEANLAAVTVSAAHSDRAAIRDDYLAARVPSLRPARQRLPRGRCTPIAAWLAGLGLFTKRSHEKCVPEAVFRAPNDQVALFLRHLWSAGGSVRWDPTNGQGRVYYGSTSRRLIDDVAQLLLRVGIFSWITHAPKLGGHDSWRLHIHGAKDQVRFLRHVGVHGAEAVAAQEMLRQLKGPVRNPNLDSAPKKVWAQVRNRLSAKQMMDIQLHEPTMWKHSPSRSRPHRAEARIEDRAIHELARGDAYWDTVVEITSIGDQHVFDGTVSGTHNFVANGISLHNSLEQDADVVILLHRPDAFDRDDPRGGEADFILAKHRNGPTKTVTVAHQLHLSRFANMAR

H4 = experiment: Luminescence Cell-Based Dose Response HTS to Identify Activators of 5'UTR Stem-Loop Driven Prion Protein mRNA Translation in H4 Neuroglioblastoma Cells. [Related pubchem assays: 1829 (Project Summary), 1814 (Primary HTS)]; format: functional; details: Homo sapiens
[2] = Luminescence Cell-Based Dose Confirmation HTS to Identify Activators of 5'UTR Stem-Loop Driven Alpha-Synuclein mRNA Translation in H4 Neuroglioblastoma Cells. [Related pubchem assays: 1829 (Project Summary), 1814 (Primary HTS)]; format: functional
[3] = Luminescence Cell-Based Dose Response HTS to Identify Activators of Luciferase Translation or Activity in H4 […] Cells. [Related pubchem assays: 1829 (Project Summary), 1814 (Primary HTS)]; format: functional
[4] = growth suppression of PTEN-null colon cells, dose response, cell-based, HCT116 PTEN knockout (AID 1047); format: functional;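 also: HCT116 colon tumor cells with PTEN knocked out; cells exposed to compound for 60 hours before readout; potency for loss of cell viability measured by luminescence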
[5] = Shn3 3'UTR reporter inhibitors, dose response, cell-based, Clone20 osteoblasts, firefly luciferase, cherry-picked (AID 624132); format: functional;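 also: firefly luciferase luminescence from reporter carrying the Shn3 3'UTR in osteoblasts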
[6] = control 3'UTR Renilla luciferase suppression, dose response, counter-screen for Shn3 inhibitor project, cell-based, Clone20-Shn3RL, cherry-picked (AID 624133); format: functional
[7] = HepG2 cell cytotoxicity, dose response, cytotoxicity control for Shn3 inhibitor project, CellTiter-Glo, cherry-picked (AID 624134); format: functional, cell-based
[8] = biological target: T3, Rac GTPase-activating protein 1 (Homo sapiens, UniProt Q9H0H5); experiment: MgcRacGAP GTPase-activating activity inhibitors, confirmation, biochemical, ADP Hunter fluorescence, primary and confirmatory (AID 624330); format: functional
T3 sequence (Q9H0H5 whole entry): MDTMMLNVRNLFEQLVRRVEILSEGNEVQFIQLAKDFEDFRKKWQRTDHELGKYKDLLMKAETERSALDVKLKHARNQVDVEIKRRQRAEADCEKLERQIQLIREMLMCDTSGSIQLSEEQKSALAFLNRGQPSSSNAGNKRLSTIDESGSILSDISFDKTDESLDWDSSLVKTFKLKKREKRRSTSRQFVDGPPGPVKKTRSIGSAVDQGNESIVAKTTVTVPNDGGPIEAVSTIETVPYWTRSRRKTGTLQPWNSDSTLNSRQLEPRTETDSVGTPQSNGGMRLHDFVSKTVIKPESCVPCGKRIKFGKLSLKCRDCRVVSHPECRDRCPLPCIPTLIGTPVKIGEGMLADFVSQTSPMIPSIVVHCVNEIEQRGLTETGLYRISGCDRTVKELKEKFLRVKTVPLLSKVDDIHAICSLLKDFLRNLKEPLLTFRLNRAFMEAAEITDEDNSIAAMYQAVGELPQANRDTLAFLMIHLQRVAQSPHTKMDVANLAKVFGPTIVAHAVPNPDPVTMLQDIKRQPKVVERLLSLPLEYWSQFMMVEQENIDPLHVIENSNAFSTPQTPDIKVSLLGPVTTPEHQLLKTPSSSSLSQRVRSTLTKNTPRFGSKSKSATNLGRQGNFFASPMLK

Streptokinase A = biological target: T4, Streptokinase A (Streptococcus pyogenes serotype M1, UniProt P10520); experiment: S. pyogenes streptokinase expression inhibitors, potency, dose response, plasminogen activation absorbance, OD405 (AID 1914); format: functional, Streptococcus pyogenes M1 GAS;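 also: secreted streptokinase activity via plasminogen activation per viability signal from cell pellet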
T4 sequence (P10520 whole entry): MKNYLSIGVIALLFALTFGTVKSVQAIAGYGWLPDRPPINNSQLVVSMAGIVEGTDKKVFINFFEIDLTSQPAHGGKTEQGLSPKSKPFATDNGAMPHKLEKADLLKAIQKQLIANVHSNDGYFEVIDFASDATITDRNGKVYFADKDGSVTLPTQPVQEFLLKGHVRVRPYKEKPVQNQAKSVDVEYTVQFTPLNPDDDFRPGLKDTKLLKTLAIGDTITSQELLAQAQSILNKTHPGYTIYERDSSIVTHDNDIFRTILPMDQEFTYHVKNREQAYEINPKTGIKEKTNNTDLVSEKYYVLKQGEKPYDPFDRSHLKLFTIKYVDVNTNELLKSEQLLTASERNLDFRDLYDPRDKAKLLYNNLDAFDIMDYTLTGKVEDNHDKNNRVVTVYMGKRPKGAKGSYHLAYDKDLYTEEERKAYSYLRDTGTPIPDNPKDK

[9] = system: Streptococcus sp. 'group A'; experiment: growth inhibition of control SK(-) GAS strain, dose response, counter-screen for streptokinase expression inhibitor project, luminescence, kanamycin, BacTiterGlo, confirmation (AID 1900); format: functional, organism-based
Streptococcus = experiment: Group A Streptococcus viability loss, dose response, counter-screen for streptokinase expression inhibitor project, luminescence, BacTiterGlo (AID 1915); format: functional, organism-based;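 also: potency for reduction of bacterial viability or growth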

CCCCOC(=O)C1CCCC(C(=O)OCCCC)N1 (stereo not drawn)
IC50 (cells): 16.6 µM (active)

Cc1ccccc1N1CCN(Cc2ccc([N+](=O)[O-])o2)CC1
IC50 (cells): 0.73 µM (active)

COC1(OC)C(/C=C/c2ccc(C)cc2)C(C#N)(C#N)C1(OC)OC (stereo not drawn)
EC50 (Protein RecA): > 380 µM (inactive)
AC50 [1]: > 380 µM (inactive)

O=C(Oc1ccccc1)c1cc2ccccc2o1
IC50 (cells): 18.4 µM (active)

COc1ccc2nc(N3C(=O)C(O)=C(C(=O)c4ccco4)C3c3ccccc3OC)sc2c1 (stereo not drawn)
EC50 (H4): 32.4 µM (active)
EC50 [2]: > 120 µM (not active)
EC50 [3]: > 120 µM (not active)

Cc1cc(C)nc(Nc2n[nH]c(-c3ccccc3Cl)n2)n1
EC50 (H4): 52.7 µM (inconclusive)
EC50 [2]: 12.3 µM (active)
EC50 [3]: 19.8 µM (active)

Cn1c(SCC(=O)NCC2CCCO2)ncc(C(=O)Nc2ccc(Cl)cc2)c1=O (stereo not drawn)
EC50 (Protein RecA): 1.13 µM (active)
AC50 [1]: > 380 µM (inactive)

Cc1cc(C(=O)OCC(=O)N2CCc3ccccc32)c(C)o1
EC50 (H4): 13.4 µM (active)
EC50 [2]: 5.44 µM (active)
EC50 [3]: 21.6 µM (active)

O=C1C(Cl)=C(NCCCN2CCOCC2)C(=O)N1CCc1ccccc1
EC50 (H4): 45.1 µM (active)
EC50 [2]: 6.1 µM (active)
EC50 [3]: 15.3 µM (active)

Cc1ccc(S(=O)(=O)NC(=Nc2ccccn2)c2ccc(Cl)cc2)cc1
EC50 (H4): > 120 µM (not active)
EC50 [2]: > 120 µM (not active)
EC50 [3]: 34.8 µM (active)

CCO/C(O)=C1\C(C)=NC(SCc2cc(O)[nH]n2)=C(C#N)C1c1cccs1 (stereo not drawn)
EC50 (Protein RecA): 4.99 µM (active)
AC50 [1]: 6.16 µM (active)

COCc1nc(-c2ccc(-c3ccc(C)cc3)nc2OC)no1
EC50 (H4): 14.2 µM (active)
EC50 [2]: > 120 µM (not active)
EC50 [3]: 76 µM (active)

CN(CCC#N)C(=O)Cn1nc(Cc2ccncc2)c2ccccc2c1=O
EC50 (Protein RecA): > 380 µM (inactive)
AC50 [1]: > 380 µM (inactive)

O=C(Nc1ccc(-c2nc3ccccc3o2)cc1)c1cccnc1
EC50 [4]: 23.3 µM (active)

N#Cc1cc(-c2ccccc2)[nH]c1-c1nccc2ccccc12
AC50 [5]: 3.42 µM (active)
AC50 [6]: 9.62 µM (active)
AC50 [7]: 48.7 µM (active)

Cc1ccc2[nH]c3c(c2c1)CN(C(=O)CN1CCSCC1)CC3
EC50 (Protein RecA): 0.132 µM (active)
AC50 [1]: > 380 µM (inconclusive)

O=C(Oc1ccccc1)c1ccc(COC(=O)c2cnccn2)cc1
IC50 (cells): 6.29 µM (active)

CCOc1ccc2nc(NC(=O)CSc3nc(SC)ns3)sc2c1
EC50 (H4): 47.5 µM (active)
EC50 [2]: 12.7 µM (active)
EC50 [3]: 8.43 µM (active)

CC(C)(C)c1ccc(C(=O)C2CCCN(Cc3ccon3)C2)cc1 (stereo not drawn)
EC50 (H4): 17.2 µM (active)
EC50 [2]: 14.6 µM (active)
EC50 [3]: 18.3 µM (active)

O=C1c2ccccc2-c2nnc(-c3ccc(O)cc3)cc21
EC50 (Protein RecA): 1.13 µM (active)
AC50 [1]: 15.4 µM (active)

O=C(N/N=C/c1ccc(O)cc1)c1cccc(C(F)(F)F)c1
IC50 (cells): 38.6 µM (active)
IC50 [8]: 83.9 µM (active)

CCCCNC(=O)Nc1c(C(=O)OC)[nH]c2ccc(C)cc12
EC50 [4]: 37.7 µM (active)

C/C(=N\NC(=O)c1c(Cl)cnn1C)c1ccc(NC(=O)c2ccc(Br)o2)cc1
EC50 (H4): 28.4 µM (active)
EC50 [2]: 6.11 µM (active)
EC50 [3]: 6.56 µM (active)

COC(=O)COc1cccc(NC(=O)c2ccc(Cl)cc2)c1
IC50 (cells): 2.8 µM (active)

CC/C(=C/c1ccccc1)c1cccc2[nH]c3c(OC)cccc3c12
EC50 (Streptokinase A): 19.6 µM (active)
EC50 [9]: 1.87 µM (active)
AC50 [5]: 32.8 µM (active)
AC50 [6]: 19 µM (active)
AC50 [7]: > 70 µM (inactive)
EC50 (Streptococcus): 4.75 µM (active)

CCOC(=O)c1cc2cc3ccccc3cc2oc1=O
IC50 (cells): 10.9 µM (active)
